From PubChem BioAssay (NCI) come the findings set out here.

Where “and” joins values, the source holds several entries; their conditions need not be identical. Equal entries are not always repeated.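 Cultured in 96-well plates, cells were exposed to test compound for 48 hours across five concentrations. GI50 = concentration required for 50% inhibition of growth. TGI: concentration producing complete growth inhibition.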

Common to all, as to assay: NCI-60 cell line screen, 48 h
For experiment [1], the system named is SK-MEL-28 melanoma.
For experiment [2], the system named is CCRF-CEM leukemia.
For experiment [3], the system named is HCT-15 colon.
For experiment [4], the system named is EKVX NSCLC.
Experiment [5] concerns HCT-116 colon.
Experiment [6] has as its system SK-MEL-2 melanoma.
Experiment [7] deals with MCF7 breast.
Experiment [8] concerns U251 CNS.
Experiment [9] deals with SN12C renal.
Experiment [10] has as its system KM12 colon.

On to `CCNNC(=O)[C@@H]1[C@H](c2cc(OC)c(OC)c(OC)c2)c2cc3c(cc2[C@H](O)[C@H]1CO)OCO3`, for which the GI50 was 0.599 µM in experiment [1]; 0.316 µM in [2]; 0.398 µM in [3]; 0.519 µM in experiment [4]; 0.354 µM in [5]; 0.614 µM in experiment [6]. Moreover, the GI50 in experiment [7] was 0.36 µM; in experiment [8], 0.321 µM; in [9], 0.449 µM; in experiment [10], 0.387 µM. Besides, the TGI in [1], in experiment [2], in experiment [3], in experiment [4], in experiment [5] and in [6] was greater than 100 µM throughout. For the same compound, the TGI in experiment [7], in experiment [8], in [9] and in experiment [10] was greater than 100 µM each time.
`COc1cc2c3c(n(CCCBr)c(=O)c2cc1OC)-c1ccc(F)cc1C3=O`: the GI50 in experiment [1] is 39.8 µM; in experiment [2], 1.99 µM; in [3], 48.7 µM; in experiment [4], 49.5 µM; in [5], 5.72 µM; in experiment [6], 23 µM. Besides, the GI50 in [7] is 4.1 µM; in [8], 3.74 µM; in experiment [9], 15.6 µM; in [10] it was 35.3 µM. The TGI in experiment [1] is greater than 100 µM; in [2] it was 8.94 µM; in [3], greater than 100 µM; in experiment [4], greater than 100 µM; in [5] it was 30.6 µM; in [6], 80.6 µM. Also, the TGI was greater than 100 µM in [7], 24.3 µM in experiment [8], greater than 100 µM in [9] and greater than 100 µM in experiment [10].
With `C[C@@H](COCCC(=O)N1CCN(c2ncc(C(F)(F)F)cn2)CC1)Nc1cn[nH]c(=O)c1C(F)(F)F`, the GI50 in experiment [1] was greater than 100 µM; in [2], 15 µM; in experiment [3] it was greater than 100 µM; in [4], greater than 94 µM; in [5], 40.3 µM; in [6] it was greater than 100 µM. Also, the GI50 in [7] is 31.2 µM; in experiment [8] it was 29.3 µM; in experiment [9], 31.1 µM; in experiment [10] it was greater than 100 µM. Further, the TGI in experiment [1], in [2], in experiment [3], in experiment [4], in experiment [5] and in experiment [6] was greater than 100 µM each time. Moreover, the TGI in experiment [7], in experiment [8], in [9] and in [10] was greater than 100 µM in each case.
Take `N#C/C(=C\c1c(-c2ccccc2)[nH]c2ccccc12)C(=O)c1ccccc1`: the GI50 was 12 µM in experiment [1]; 7.27 µM in experiment [2]; 3.53 µM in experiment [3]; 9.97 µM in experiment [4]; 5.29 µM in [5]; 35.2 µM in experiment [6]. The GI50 in experiment [7] was 3.95 µM; in [8], 4.73 µM; in [9], 5.66 µM; in [10], 1.96 µM. Moreover, the TGI in experiment [1], in [2], in experiment [3], in experiment [4], in [5] and in experiment [6] was greater than 100 µM in each case. In addition, the TGI in experiment [7] was greater than 100 µM; in experiment [8] it was 27.4 µM; in experiment [9], greater than 100 µM; in experiment [10], 19.4 µM.
`Cc1nc2c(N3CCCC3)nc(N3CCNCC3)nc2nc1NCc1ccccc1`: the TGI in experiment [1] is 3.75 µM; in experiment [2], 11 µM and 6.27 µM; in [3], 8.9 µM and 4.53 µM; in experiment [4] it was 10.6 µM and 20.8 µM; in experiment [5] it was 13.4 µM and 11.3 µM; in experiment [6] it was 9.42 µM and 9.97 µM. Besides, the TGI in experiment [7] is 13.3 µM and 5.92 µM; in [8], 11.7 µM and 13 µM; in experiment [9], 13 µM and 19.9 µM; in [10], 26.6 µM and 13.3 µM. Besides, the GI50 in experiment [2] was 4.65 µM; in [3] it was 4.17 µM; in [4] it was 5.46 µM; in experiment [5], 3.96 µM; in experiment [6] it was 4.48 µM; in experiment [7], 5.99 µM. The GI50 is 4.27 µM in experiment [8], 6.39 µM in experiment [9] and 6.53 µM in experiment [10].
On to `Cc1ccc2nc(-c3ccc(N)c4ccccc34)[nH]c2c1`, for which the GI50 is 3.38 µM in experiment [1]; 0.0382 µM in experiment [2]; less than 0.0425 µM in [3]; 0.185 µM in experiment [4]; 0.04 µM in experiment [5]; 0.209 µM in [6]. Also, the GI50 in [7] was 2.68 µM; in [8], 0.0619 µM; in experiment [9], 0.0913 µM; in [10] it was 2.46 µM. Besides, the TGI in experiment [1] was greater than 54.1 µM; in experiment [2], 2.1 µM; in experiment [3], 13.4 µM; in experiment [4], greater than 71.5 µM; in experiment [5] it was 4.57 µM; in [6], 24.9 µM. For the same compound, the TGI in experiment [7] is greater than 100 µM; in [8], 22.5 µM; in experiment [9], 19.4 µM; in [10] it was 13.5 µM.
In the case of `O=C(CCSc1ccnc2c(C(F)(F)F)cccc12)N/N=C/c1cc(Cl)c(Cl)cc1Cl`, the GI50 was 17 µM in experiment [1]; 25.4 µM in experiment [2]; 20 µM in experiment [3]; 38.1 µM in experiment [4]; 18.5 µM in experiment [5]; 50.5 µM in experiment [6]. In addition, the GI50 is 22.9 µM in experiment [7], 18.4 µM in experiment [8], 18 µM in experiment [9] and 29.7 µM in experiment [10]. Further, the TGI in [1] was 32.5 µM; in experiment [2] it was 62.1 µM; in experiment [3] it was 36.5 µM; in [4], greater than 100 µM; in experiment [5], 32.5 µM; in [6] it was greater than 100 µM. Also, the TGI in experiment [7] came to 44 µM; in [8], 32.4 µM; in [9], 34.1 µM; in experiment [10], 77.9 µM.
